# Data from PubChem BioAssay (NCI).
#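 All cell lines were grown in 96-well plates and treated with compound for 48 hours. GI50 is the concentration that inhibits growth by half. TGI: total growth inhibition.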
# Assays:
# Experiment in all cases: NCI-60 cell line screen, 48 h
# 786-0 renal = test system: 786-0 renal
# A498 renal = test system: A498 renal
# A549 NSCLC = test system: A549 NSCLC
# ACHN renal = test system: ACHN renal
# BT-549 breast = test system: BT-549 breast
# CAKI-1 renal = test system: CAKI-1 renal
# CCRF-CEM leukemia = test system: CCRF-CEM leukemia
# COLO 205 colon = test system: COLO 205 colon
# DU-145 prostate = test system: DU-145 prostate
# EKVX NSCLC = test system: EKVX NSCLC
# HCC-2998 colon = test system: HCC-2998 colon
# HCT-116 colon = test system: HCT-116 colon
# HCT-15 colon = test system: HCT-15 colon
# HL-60(TB) leukemia = test system: HL-60(TB) leukemia
# HOP-62 NSCLC = test system: HOP-62 NSCLC
# HOP-92 NSCLC = test system: HOP-92 NSCLC
# HS 578T breast = test system: HS 578T breast
# HT29 colon = test system: HT29 colon
# IGROV1 ovarian = test system: IGROV1 ovarian
# K-562 leukemia = test system: K-562 leukemia
# KM12 colon = test system: KM12 colon
# LOX IMVI melanoma = test system: LOX IMVI melanoma
# M14 melanoma = test system: M14 melanoma
# MALME-3M melanoma = test system: MALME-3M melanoma
# MCF7 breast = test system: MCF7 breast
# MDA-MB-231 breast = test system: MDA-MB-231 breast
# MDA-MB-435 = test system: MDA-MB-435
# MOLT-4 leukemia = test system: MOLT-4 leukemia
# NCI-H226 lung = test system: NCI-H226 lung
# NCI-H23 lung = test system: NCI-H23 lung
# NCI-H460 lung = test system: NCI-H460 lung
# NCI-H522 lung = test system: NCI-H522 lung
# NCI/ADR-RES ovarian = test system: NCI/ADR-RES ovarian
# OVCAR-3 ovarian = test system: OVCAR-3 ovarian
# OVCAR-4 ovarian = test system: OVCAR-4 ovarian
# OVCAR-5 ovarian = test system: OVCAR-5 ovarian
# OVCAR-8 ovarian = test system: OVCAR-8 ovarian
# PC-3 prostate = test system: PC-3 prostate
# RPMI-8226 leukemia = test system: RPMI-8226 leukemia
# RXF 393 renal = test system: RXF 393 renal
# SF-268 CNS = test system: SF-268 CNS
# SF-295 CNS = test system: SF-295 CNS
# SF-539 CNS = test system: SF-539 CNS
# SK-MEL-2 melanoma = test system: SK-MEL-2 melanoma
# SK-MEL-28 melanoma = test system: SK-MEL-28 melanoma
# SK-MEL-5 melanoma = test system: SK-MEL-5 melanoma
# SK-OV-3 ovarian = test system: SK-OV-3 ovarian
# SN12C renal = test system: SN12C renal
# SNB-19 CNS = test system: SNB-19 CNS
# SNB-75 CNS = test system: SNB-75 CNS
# SW-620 colon = test system: SW-620 colon
# T-47D breast = test system: T-47D breast
# TK-10 renal = test system: TK-10 renal
# U251 CNS = test system: U251 CNS
# UACC-62 melanoma = test system: UACC-62 melanoma
# UO-31 renal = test system: UO-31 renal
smiles,measurement,setting,value
CC/C=C\C/C=C\C[C@H]1C/C=C2/C(=O)C=C[C@H]2C/C=C\CCC(=O)O1,GI50,786-0 renal,3.13 µM
same,TGI,786-0 renal,7.45 µM
same,GI50,A498 renal,4.07 µM
same,TGI,A498 renal,13.3 µM
same,GI50,A549 NSCLC,3.96 µM
same,TGI,A549 NSCLC,12.2 µM
same,GI50,ACHN renal,2.6 µM
same,TGI,ACHN renal,5.2 µM
same,GI50,BT-549 breast,3.68 µM
same,TGI,BT-549 breast,10.1 µM
same,GI50,CAKI-1 renal,3.13 µM
same,TGI,CAKI-1 renal,8.58 µM
same,GI50,CCRF-CEM leukemia,2.89 µM
same,TGI,CCRF-CEM leukemia,13 µM
same,GI50,COLO 205 colon,3.11 µM
same,TGI,COLO 205 colon,6.71 µM
same,GI50,DU-145 prostate,4.33 µM
same,TGI,DU-145 prostate,> 14.3 µM
same,GI50,EKVX NSCLC,3.81 µM
same,TGI,EKVX NSCLC,> 14.3 µM
same,GI50,HCC-2998 colon,2.77 µM
same,TGI,HCC-2998 colon,5.37 µM
same,GI50,HCT-116 colon,3.63 µM
same,TGI,HCT-116 colon,> 14.3 µM
same,GI50,HCT-15 colon,2.23 µM
same,TGI,HCT-15 colon,6 µM
same,GI50,HL-60(TB) leukemia,3.55 µM
same,TGI,HL-60(TB) leukemia,12.2 µM
same,GI50,HOP-62 NSCLC,3.94 µM
same,TGI,HOP-62 NSCLC,10.6 µM
same,GI50,HOP-92 NSCLC,2.72 µM
same,TGI,HOP-92 NSCLC,8.01 µM
same,GI50,HS 578T breast,4.85 µM
same,TGI,HS 578T breast,> 14.3 µM
same,GI50,HT29 colon,2.55 µM
same,TGI,HT29 colon,6.49 µM
same,GI50,IGROV1 ovarian,3.71 µM
same,TGI,IGROV1 ovarian,11.8 µM
same,GI50,K-562 leukemia,2.84 µM
same,TGI,K-562 leukemia,> 14.3 µM
same,GI50,KM12 colon,2.52 µM
same,TGI,KM12 colon,5.7 µM
same,GI50,LOX IMVI melanoma,2.34 µM
same,TGI,LOX IMVI melanoma,4.78 µM
same,GI50,M14 melanoma,4.48 µM
same,TGI,M14 melanoma,> 14.3 µM
same,GI50,MALME-3M melanoma,2.85 µM
same,TGI,MALME-3M melanoma,8.8 µM
same,GI50,MCF7 breast,0.824 µM
same,TGI,MCF7 breast,11.8 µM
same,GI50,MDA-MB-231 breast,4.65 µM
same,TGI,MDA-MB-231 breast,> 14.3 µM
same,GI50,MDA-MB-435,3.03 µM
same,TGI,MDA-MB-435,8.91 µM
same,GI50,MOLT-4 leukemia,3.48 µM
same,TGI,MOLT-4 leukemia,10.5 µM
same,GI50,NCI-H226 lung,2.78 µM
same,TGI,NCI-H226 lung,8.54 µM
same,GI50,NCI-H23 lung,3.03 µM
same,TGI,NCI-H23 lung,8.31 µM
same,GI50,NCI-H460 lung,3.1 µM
same,TGI,NCI-H460 lung,7.96 µM
same,GI50,NCI-H522 lung,1.83 µM
same,TGI,NCI-H522 lung,5.32 µM
same,GI50,NCI/ADR-RES ovarian,4.7 µM
same,TGI,NCI/ADR-RES ovarian,> 14.3 µM
same,GI50,OVCAR-3 ovarian,2.11 µM
same,TGI,OVCAR-3 ovarian,5.01 µM
same,GI50,OVCAR-4 ovarian,5.22 µM
same,TGI,OVCAR-4 ovarian,> 14.3 µM
same,GI50,OVCAR-5 ovarian,4.13 µM
same,TGI,OVCAR-5 ovarian,> 14.3 µM
same,GI50,OVCAR-8 ovarian,4.73 µM
same,TGI,OVCAR-8 ovarian,> 14.3 µM
same,GI50,PC-3 prostate,3.39 µM
same,TGI,PC-3 prostate,12.5 µM
same,GI50,RPMI-8226 leukemia,1.29 µM
same,TGI,RPMI-8226 leukemia,7.45 µM
same,GI50,RXF 393 renal,2.28 µM
same,TGI,RXF 393 renal,4.61 µM
same,GI50,SF-268 CNS,3.31 µM
same,TGI,SF-268 CNS,10.4 µM
same,GI50,SF-295 CNS,3.01 µM
same,TGI,SF-295 CNS,9.29 µM
same,GI50,SF-539 CNS,4.44 µM
same,TGI,SF-539 CNS,> 14.3 µM
same,GI50,SK-MEL-2 melanoma,3.45 µM
same,TGI,SK-MEL-2 melanoma,9.94 µM
same,GI50,SK-MEL-28 melanoma,3.12 µM
same,TGI,SK-MEL-28 melanoma,8.01 µM
same,GI50,SK-MEL-5 melanoma,2.24 µM
same,TGI,SK-MEL-5 melanoma,4.41 µM
same,GI50,SK-OV-3 ovarian,10 µM
same,TGI,SK-OV-3 ovarian,> 14.3 µM
same,GI50,SN12C renal,3.46 µM
same,TGI,SN12C renal,8.77 µM
same,GI50,SNB-19 CNS,5.04 µM
same,TGI,SNB-19 CNS,> 14.3 µM
same,GI50,SNB-75 CNS,10.1 µM
same,TGI,SNB-75 CNS,> 14.3 µM
same,GI50,SW-620 colon,2.11 µM
same,TGI,SW-620 colon,5.52 µM
same,GI50,T-47D breast,4.62 µM
same,TGI,T-47D breast,> 14.3 µM
same,GI50,TK-10 renal,4.72 µM
same,TGI,TK-10 renal,12.9 µM
same,GI50,U251 CNS,3.06 µM
same,TGI,U251 CNS,9.71 µM
same,GI50,UACC-62 melanoma,2.09 µM
same,TGI,UACC-62 melanoma,5.47 µM
same,GI50,UO-31 renal,2.23 µM
same,TGI,UO-31 renal,4.96 µM
